Values of other authors as cited in patent publication US8440172B2, “Stable soluble salts of phenylbenzimidazole sulfonic acid at PHS at or below 7.0” (Symrise AG, priority 2007, dated 2013).

Tests used:
[1] = free acid, not neutralised

For `O=S(=O)(O)c1ccc2nc(-c3ccccc3)[nH]c2c1` [phenylbenzimidazole sulfonic acid, 2-phenylbenzimidazole-5-sulfonic acid], the “pH of cosmetic formulation needed to prevent the free acid from recrystallising” value (Johncock, Cosmetic & Toiletries Magazine 1999) is listed as “above 6.8”, the “pH at which crystal formation starts” value (cosmetic formulation, Johncock 1999) is listed as 7.0 and the solubility in water [1] is listed as 0.25 % w/w.
